Target: T1, DCLK1 (Doublecortin-like kinase 1) (Homo sapiens, UniProt O15075)
T1 sequence (O15075 1-740): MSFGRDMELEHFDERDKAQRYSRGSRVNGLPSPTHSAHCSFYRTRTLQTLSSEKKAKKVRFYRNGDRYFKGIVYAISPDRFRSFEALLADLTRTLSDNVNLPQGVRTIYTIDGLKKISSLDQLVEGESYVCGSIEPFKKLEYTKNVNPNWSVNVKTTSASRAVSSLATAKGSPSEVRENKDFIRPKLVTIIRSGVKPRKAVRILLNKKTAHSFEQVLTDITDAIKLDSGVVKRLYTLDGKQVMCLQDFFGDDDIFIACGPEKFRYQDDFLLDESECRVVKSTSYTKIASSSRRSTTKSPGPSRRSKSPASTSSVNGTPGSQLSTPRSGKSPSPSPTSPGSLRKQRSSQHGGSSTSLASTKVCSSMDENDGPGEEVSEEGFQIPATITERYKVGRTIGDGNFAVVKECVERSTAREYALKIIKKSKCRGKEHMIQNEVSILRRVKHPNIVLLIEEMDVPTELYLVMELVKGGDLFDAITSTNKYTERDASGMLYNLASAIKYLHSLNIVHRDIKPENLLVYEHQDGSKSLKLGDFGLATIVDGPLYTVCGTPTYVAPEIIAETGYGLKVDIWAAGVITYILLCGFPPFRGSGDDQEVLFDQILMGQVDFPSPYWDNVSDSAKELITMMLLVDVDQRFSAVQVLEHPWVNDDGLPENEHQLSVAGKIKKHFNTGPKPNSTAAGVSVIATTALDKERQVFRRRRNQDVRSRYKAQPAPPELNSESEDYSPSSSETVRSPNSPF
Assay: DCLK1 kinase activity assay, dose response
Type: biochemical

COc1cc(N2CCN(C)CC2)ccc1Nc1ncc2c(n1)N(C)c1ccccc1C(=O)N2CC(F)(F)F [DCLK1-IN-1]
IC50: 143 nM
